Data as given in US20260274833A1 (NiKang Therapeutics, Inc., priority 2022, published 2026).

Target: T1, CDK2 (Homo sapiens, UniProt P24941)
T1 construct: endogenous in cells; host or cells: OVCAR3 cells
Experiment: Phospho-RB measurement in OVCAR3 cells (HTRF phospho-RB cellular kit)
Format: cell-based
Conditions: inhibition of RB phosphorylation at S807/811 (HTRF, TR-FRET ratio 665/620), 24 h compound treatment, 0.3 to 10,000 nM
How it was run: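 IC50 came from a four-parameter logistic fit of the DMSO-normalized TR-FRET ratio (665/620 nm). That ratio reflects RB phosphorylation at S807/811, read with an HTRF antibody pair 4 h after adding lysate at room temperature.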

| Structure (SMILES) | IC50 |
| --- | --- |
| O=S1(=O)CC2(CC(Nc3nccc(-c4sc(C56CC(C5)C6)nc4-c4cccc(NS(=O)(=O)N5CCCc6ccccc6C5)c4F)n3)C2)C1 [Example 50, N-(3-(2-(bicyclo [1.1.1]pentan-1-yl)-5-(2-((2,2-dioxido-2-thiaspiro[3.3]heptan-6-yl)amino)-pyrimidin-4-yl)thiazol-4-yl)-2-fluorophenyl)-1,3,4,5-tetrahydro-2H-benzo[c]azepine-2-sulfonamide] | 228 nM |
| O=S1(=O)CC2(CC(Nc3nccc(-c4sc(N5C6CCC5CN(C5CC(F)(F)C5)C6)nc4-c4cccc(NS(=O)(=O)N5CCc6ccc(Cl)cc65)c4F)n3)C2)C1 [Example 51, 6-chloro-N-(3-(2-(3-(3,3-difluoro-cyclobutyl)-3,8-diazabicyclo [3.2.1]octan-8-yl)-5-(2-((2,2-dioxido-2-thiaspiro-[3.3]heptan-6-yl)amino)-pyrimidin-4-yl)thiazol-4-yl)-2-fluorophenyl)-indoline-1-sulfonamide] | 336 nM |
| O=S1(=O)CC2(CC(Nc3nccc(-c4sc(N5C6CCC5CN(C5CC(F)(F)C5)C6)nc4-c4cccc(NS(=O)(=O)N5Cc6cccc(C(F)F)c6C5)c4F)n3)C2)C1 [Example 52, N-(3-(2-(3-(3,3-difluorocyclobutyl)-3,8-diazabicyclo [3.2.1]octan-8-yl)-5-(2-((2,2-dioxido-2-thiaspiro[3.3]heptan-6-yl)amino)-pyrimidin-4-yl)thiazol-4-yl)-2-fluorophenyl)-4-(difluoromethyl)-isoindoline-2-sulfonamide] | 160 nM |
| CS(=O)(=O)[C@H]1CC[C@H](Nc2nccc(-c3sc(C45CC(C(F)(F)F)(C4)C5)nc3-c3cccc(NS(=O)(=O)N4CCc5ccccc54)c3F)n2)CC1 [Example 53] | 262 nM |
| CS(=O)(=O)[C@H]1CC[C@H](Nc2nccc(-c3sc(C45CC(C(F)(F)F)(C4)C5)nc3-c3cccc(NS(=O)(=O)N4CCc5ccc(Cl)cc54)c3F)n2)CC1 [Example 54, 6-chloro-N-(2-fluoro-3-(5-(2-(((1r,4r)-4-(methylsulfonyl)cyclohexyl)amino)pyrimidin-4-yl)-2-(3-(trifluoromethyl)bicyclo-[1.1.1]-pentan-1-yl)thiazol-4-yl)phenyl)-indoline-1-sulfonamide] | 382 nM |
| CS(=O)(=O)[C@H]1CC[C@H](Nc2nccc(-c3sc(C45CC(C(F)(F)F)(C4)C5)nc3-c3cccc(NS(=O)(=O)N4CCc5ccc(C(F)(F)F)cc54)c3F)n2)CC1 [Example 55, N-(2-fluoro-3-(5-(2-(((1r, 4r)-4-(methylsulfonyl)cyclohexyl)amino)pyrimidin-4-yl)-2-(3-(trifluoromethyl)bicyclo-[1.1.1]-pentan-1-yl)thiazol-4-yl)phenyl)-6-(trifluoromethyl) indoline-1-sulfonamide] | 525 nM |
| CS(=O)(=O)[C@H]1CC[C@H](Nc2nccc(-c3sc(C45CC(C(F)(F)F)(C4)C5)nc3-c3cccc(NS(=O)(=O)N4CCc5ccc(C#N)cc54)c3F)n2)CC1 [Example 56, 6-cyano-N-(2-fluoro-3-(5-(2-(((1r,4r)-4-(methylsulfonyl)cyclohexyl)amino)-pyrimidin-4-yl)-2-(3-(trifluoromethyl)-bicyclo[1.1.1]-pentan-1-yl)thiazol-4-yl)phenyl)indoline-1-sulfonamide] | 270 nM |
| CS(=O)(=O)[C@H]1CC[C@H](Nc2nccc(-c3sc(C45CC(C(F)(F)F)(C4)C5)nc3-c3cccc(NS(=O)(=O)N4Cc5ccccc5C4)c3F)n2)CC1 [Example 57, N-(2-fluoro-3-(5-(2-(((1r,4r)-4-(methylsulfonyl)cyclohexyl)amino)-pyrimidin-4-yl)-2-(3-(trifluoromethyl)-bicyclo[1.1.1]-pentan-1-yl)thiazol-4-yl)phenyl) isoindoline-2-sulfonamide] | 494 nM |
| CS(=O)(=O)C1CCC(Nc2nccc(-c3sc(C45CC(C(F)(F)F)(C4)C5)nc3-c3cccc(NS(=O)(=O)N4Cc5cccc(C(F)F)c5C4)c3F)n2)CC1 (stereo not drawn) [Example 58, 4-(difluoromethyl)-N-(2-fluoro-3-(5-(2-(((1r,4r)-4-(methylsulfonyl)cyclohexyl)-amino)pyrimidin-4-yl)-2-(3-(trifluoromethyl)-bicyclo[1.1.1]pentan-1-yl)thiazol-4-yl)phenyl)-isoindoline-2-sulfonamide] | 285 nM |
| N#Cc1ccc2c(c1)N(S(=O)(=O)Nc1cccc(-c3nc(C45CC(C4)C5)sc3-c3ccnc(N[C@H]4C[C@@H]5CS(=O)(=O)C[C@@H]5C4)n3)c1F)CC2 [Example 59, N-(3-(2-(bicyclo [1.1.1]pentan-1-yl)-5-(2-(((3aR,5s,6aS)-2,2-dioxidohexahydro-1H-cyclopenta[c]thiophen-5-yl)amino)-pyrimidin-4-yl)thiazol-4-yl)-2-fluorophenyl)-6-cyanoindoline-1-sulfonamide] | 53.3 nM |
| CC1CCCN(S(=O)(=O)Nc2cccc(-c3nc(C(C)(C)C)sc3-c3ccnc(NC4CCN(S(C)(=O)=O)CC4)n3)c2F)C1 (stereo not drawn) [Example 62, N-(3-(2-(tert-butyl)-5-(2-((1-(methylsulfonyl)-piperidin-4-yl)amino)-pyrimidin-4-yl)thiazol-4-yl)-2-fluoro-phenyl)-3-methylpiperidine-1-sulfonamide] | 3170 nM |
| CC1CCN(S(=O)(=O)Nc2cccc(-c3nc(C(C)(C)C)sc3-c3ccnc(NC4CCN(S(C)(=O)=O)CC4)n3)c2F)CC1 [Example 63, N-(3-(2-(tert-butyl)-5-(2-((1-(methylsulfonyl)-piperidin-4-yl)amino)-pyrimidin-4-yl)thiazol-4-yl)-2-fluoro-phenyl)-4-methylpiperidine-1-sulfonamide] | 679 nM |
| CC(C)(C)c1nc(-c2cccc(NS(=O)(=O)N3CCN(c4ccccc4)CC3)c2F)c(-c2ccnc(NC3CCN(S(C)(=O)=O)CC3)n2)s1 [Example 64, N-(3-(2-(tert-butyl)-5-(2-((1-(methylsulfonyl)-piperidin-4-yl)amino)-pyrimidin-4-yl)thiazol-4-yl)-2-fluoro-phenyl)-4-phenylpiperazine-1-sulfonamide] | 735 nM |
| CC(C)(C)c1nc(-c2cccc(NS(=O)(=O)N3CCC(Oc4ccccc4)CC3)c2F)c(-c2ccnc(NC3CCN(S(C)(=O)=O)CC3)n2)s1 [Example 65, N-(3-(2-(tert-butyl)-5-(2-((1-(methylsulfonyl)-piperidin-4-yl)amino)-pyrimidin-4-yl)thiazol-4-yl)-2-fluoro-phenyl)-4-phenoxypiperidine-1-sulfonamide] | 588 nM |
| CC1CCCCN1S(=O)(=O)Nc1cccc(-c2nc(C(C)(C)C)sc2-c2ccnc(NC3CCN(S(C)(=O)=O)CC3)n2)c1F (stereo not drawn) [Example 66, N-(3-(2-(tert-butyl)-5-(2-((1-(methylsulfonyl)-piperidin-4-yl)amino)-pyrimidin-4-yl)thiazol-4-yl)-2-fluoro-phenyl)-2-methylpiperidine-1-sulfonamide] | > 5000 nM |
| CC(C)(C)c1nc(-c2cccc(NS(=O)(=O)N3CCCCC3c3ccccc3)c2F)c(-c2ccnc(NC3CCN(S(C)(=O)=O)CC3)n2)s1 (stereo not drawn) [Example 67, N-(3-(2-(tert-butyl)-5-(2-((1-(methylsulfonyl)-piperidin-4-yl)amino)-pyrimidin-4-yl)thiazol-4-yl)-2-fluoro-phenyl)-2-phenylpiperidine-1-sulfonamide] | 8260 nM |
| CC(C)(C)c1nc(-c2cccc(NS(=O)(=O)N3Cc4ccccc4C3)c2F)c(-c2ccnc(NC3CCN(S(C)(=O)=O)CC3)n2)s1 [Example 69] | 88.9 nM |
| CC(C)(C)c1nc(-c2cccc(NS(=O)(=O)N3Cc4ccc(F)cc4C3)c2F)c(-c2ccnc(NC3CCN(S(C)(=O)=O)CC3)n2)s1 [Example 70, N-(3-(2-(tert-butyl)-5-(2-((1-(methylsulfonyl)-piperidin-4-yl)amino)-pyrimidin-4-yl)thiazol-4-yl)-2-fluoro-phenyl)-5-fluoroisoindoline-2-sulfonamide] | 94 nM |
| CC(C)(C)c1nc(-c2cccc(NS(=O)(=O)N3Cc4cccc(F)c4C3)c2F)c(-c2ccnc(NC3CCN(S(C)(=O)=O)CC3)n2)s1 [Example 71, N-(3-(2-(tert-butyl)-5-(2-((1-(methylsulfonyl)-piperidin-4-yl)amino)-pyrimidin-4-yl)thiazol-4-yl)-2-fluoro-phenyl)-4-fluoroisoindoline-2-sulfonamide] | 76 nM |
| COc1ccc2c(c1)CN(S(=O)(=O)Nc1cccc(-c3nc(C(C)(C)C)sc3-c3ccnc(NC4CCN(S(C)(=O)=O)CC4)n3)c1F)C2 [Example 72, N-(3-(2-(tert-butyl)-5-(2-((1-(methylsulfonyl)-piperidin-4-yl)amino)-pyrimidin-4-yl)thiazol-4-yl)-2-fluoro-phenyl)-5-methoxyisoindoline-2-sulfonamide] | 185 nM |
| CC(C)(C)c1nc(-c2cccc(NS(=O)(=O)N3CCc4ccccc43)c2F)c(-c2ccnc(NC3CCN(S(C)(=O)=O)CC3)n2)s1 [Example 73, N-(3-(2-(tert-butyl)-5-(2-((1-(methylsulfonyl)-piperidin-4-yl)amino)-pyrimidin-4-yl)thiazol-4-yl)-2-fluoro-phenyl)indoline-1-sulfonamide] | 58 nM |
| CC(C)(C)c1nc(-c2cccc(NS(=O)(=O)N3CCc4ccccc4C3)c2F)c(-c2ccnc(NC3CCN(S(C)(=O)=O)CC3)n2)s1 [Example 74, N-(3-(2-(tert-butyl)-5-(2-((1-(methylsulfonyl)-piperidin-4-yl)amino)-pyrimidin-4-yl)thiazol-4-yl)-2-fluoro-phenyl)-3,4-dihydro-isoquinoline-2(1H)-sulfonamide] | 180 nM |
| CNS(=O)(=O)N1CCC(Nc2nccc(-c3sc(C(C)(C)C)nc3-c3cccc(NS(=O)(=O)N4Cc5ccccc5C4)c3F)n2)CC1 [Example 75, N-(3-(2-(tert-butyl)-5-(2-((1-(N-methylsulfamoyl)piperidin-4-yl)amino)-pyrimidin-4-yl)thiazol-4-yl)-2-fluoro-phenyl)-isoindoline-2-sulfonamide] | 65 nM |
| CC(C)(C)c1nc(-c2cccc(NS(=O)(=O)N3Cc4ccccc4C3)c2F)c(-c2ccnc(NC3CCN(S(N)(=O)=O)CC3)n2)s1 [Example 76, N-(3-(2-(tert-butyl)-5-(2-((1-sulfamoyl-piperidin-4-yl)amino)pyrimidin-4-yl)thiazol-4-yl)-2-fluorophenyl)-isoindoline-2-sulfonamide] | 65 nM |
